# Assay results: US8372845B2, “Pyrazine derivatives as enac blockers” (Novartis AG, priority 2010, dated 2013)
# How the values were obtained:
# [1] = biological target: T1, epithelial sodium channel (ENaC) (Homo sapiens, UniProt P37088+P51168+P51170); assay: Short circuit current (ISC) measurements in Human Bronchial Epithelial cells (HBEC-ENaC); format: cell-based; conditions: inhibition of amiloride-sensitive ISC, HBECs at air-liquid interface, Ussing chamber, apical addition
# T1 construct: host or cells: primary Human Bronchial Epithelial cells (HBECs), differentiated at air-liquid interface
# T1 sequence (P37088 1-669): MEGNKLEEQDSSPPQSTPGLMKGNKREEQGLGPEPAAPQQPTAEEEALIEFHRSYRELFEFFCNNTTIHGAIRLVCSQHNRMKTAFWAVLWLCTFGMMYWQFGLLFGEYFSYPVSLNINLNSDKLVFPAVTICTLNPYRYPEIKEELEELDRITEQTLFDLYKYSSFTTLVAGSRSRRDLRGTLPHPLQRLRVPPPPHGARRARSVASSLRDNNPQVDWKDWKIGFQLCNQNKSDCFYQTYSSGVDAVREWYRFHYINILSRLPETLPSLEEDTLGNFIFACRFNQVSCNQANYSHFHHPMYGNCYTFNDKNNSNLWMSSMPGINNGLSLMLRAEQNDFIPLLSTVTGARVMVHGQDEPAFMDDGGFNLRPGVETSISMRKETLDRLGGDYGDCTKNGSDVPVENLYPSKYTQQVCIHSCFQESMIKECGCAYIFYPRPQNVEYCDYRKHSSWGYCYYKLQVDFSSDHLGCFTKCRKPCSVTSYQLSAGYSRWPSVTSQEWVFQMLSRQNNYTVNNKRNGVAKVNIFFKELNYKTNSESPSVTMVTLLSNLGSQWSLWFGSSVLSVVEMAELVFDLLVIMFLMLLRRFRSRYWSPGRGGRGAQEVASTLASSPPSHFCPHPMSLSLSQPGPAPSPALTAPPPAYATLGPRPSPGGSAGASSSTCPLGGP
# T1 sequence (P51168 1-640): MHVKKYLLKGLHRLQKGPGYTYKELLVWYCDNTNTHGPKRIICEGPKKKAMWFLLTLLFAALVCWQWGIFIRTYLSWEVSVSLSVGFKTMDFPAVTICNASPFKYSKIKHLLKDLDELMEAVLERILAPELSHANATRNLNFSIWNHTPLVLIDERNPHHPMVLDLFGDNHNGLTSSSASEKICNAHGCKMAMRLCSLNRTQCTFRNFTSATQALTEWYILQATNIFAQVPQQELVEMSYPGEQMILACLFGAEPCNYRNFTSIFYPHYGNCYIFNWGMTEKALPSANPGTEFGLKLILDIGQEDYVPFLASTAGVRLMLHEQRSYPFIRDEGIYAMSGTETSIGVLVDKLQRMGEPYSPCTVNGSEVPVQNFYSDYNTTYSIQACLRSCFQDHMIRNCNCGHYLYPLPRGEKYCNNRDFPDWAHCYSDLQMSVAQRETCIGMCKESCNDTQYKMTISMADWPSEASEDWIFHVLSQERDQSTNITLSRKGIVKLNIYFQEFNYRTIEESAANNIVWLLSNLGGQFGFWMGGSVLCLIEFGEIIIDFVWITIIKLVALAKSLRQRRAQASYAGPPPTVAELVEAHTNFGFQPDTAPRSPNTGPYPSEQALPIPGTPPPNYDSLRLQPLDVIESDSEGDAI
# T1 sequence (P51170 1-649): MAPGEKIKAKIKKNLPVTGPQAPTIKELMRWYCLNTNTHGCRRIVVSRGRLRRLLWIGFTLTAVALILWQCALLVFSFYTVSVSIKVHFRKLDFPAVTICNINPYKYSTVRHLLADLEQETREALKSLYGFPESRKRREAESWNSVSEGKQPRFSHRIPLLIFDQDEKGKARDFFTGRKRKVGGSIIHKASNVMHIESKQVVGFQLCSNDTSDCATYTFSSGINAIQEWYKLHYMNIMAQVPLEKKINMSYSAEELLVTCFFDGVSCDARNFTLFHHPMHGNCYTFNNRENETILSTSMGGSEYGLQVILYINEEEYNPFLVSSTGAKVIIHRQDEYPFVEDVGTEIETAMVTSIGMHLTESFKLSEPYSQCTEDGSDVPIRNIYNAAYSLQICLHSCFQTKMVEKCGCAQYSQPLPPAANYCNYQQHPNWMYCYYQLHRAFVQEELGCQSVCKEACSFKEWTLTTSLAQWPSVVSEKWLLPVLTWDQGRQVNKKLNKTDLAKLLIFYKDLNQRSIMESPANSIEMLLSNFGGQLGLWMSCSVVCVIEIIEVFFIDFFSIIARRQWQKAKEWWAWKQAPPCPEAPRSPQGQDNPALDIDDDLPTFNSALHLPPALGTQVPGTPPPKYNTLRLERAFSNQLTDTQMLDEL
# Protocol: Human Bronchial Epithelial cells (HBECs) (Cambrex) were cultured under air-liquid interface conditions to provide a well differentiated mucociliary phenotype.
# Medium was changed every 48 hours until cells were 90% confluent. […] Cells were maintained submerged for the first 7 days in culture, after which time they were exposed to an apical air interface for the remainder of the culture period. At this time, media was changed to DMEM:F12 media containing 2% v/v Ultroser G for the remainder of culture. Amphotericin B was removed from all media 3 feeds prior to use in the Ussing Chambers. Cells were used between days 7 and 21 after establishment of the apical-air interface. At all stages of culture, cells were maintained at 37° C. in 5% CO2 in an air incubator.
# Short Circuit Current (ISC) Measurements
# Snapwell inserts were mounted in Vertical Diffusion Chambers (Costar) and were bathed with continuously gassed Ringer solution (5% CO2 in O2; pH 7.4) maintained at 37° C. containing (in mM): 120 NaCl, 25 NaHCO3, 3.3 KH2PO4, 0.8 K2HPO4, 1.2 CaCl2, 1.2 MgCl2, and 10 glucose. The solution osmolarity was between 280 and 300 mOsmol/kg H2O for all physiological salt solutions used. Cells were voltage clamped to 0 mV (model EVC4000; WPI). RT was measured by applying a 1- or 2-mV pulse at 30-s intervals and calculating RT by Ohm's law. Data were recorded using a PowerLab workstation (ADInstruments).
# Test compounds were prepared as a 10 mM stock solution in DMSO (95%). Serial 3-fold dilutions were freshly prepared in an appropriate vehicle (distilled H2O or Ringers solution). The initial concentration was added to the apical chamber as a 1000× concentrate in 5 μL, resulting in a final 1× concentration the 5 mL volume of the Ussing chamber. Subsequent additions of compound were added in a 3.3 μL volume of the 1000× serially diluted stock solution. At the completion of the concentration-response experiment, amiloride (10 μM) was added into the apical chamber to enable the total amiloride-sensitive current to be measured. An amiloride control IC50 was established at the start of each experiment.
# Results are expressed as the mean % inhibition of the amiloride-sensitive ISC. […] Cell inserts were typically run in duplicate and the IC50 calculated on the mean % inhibition data.
# [2] = Stability in human plasma; format: in vitro ADME; conditions: pooled human plasma (lithium heparin), 1 μM compound, 37° C., 1 hour incubation
# Protocol: The stability of the compounds of the invention in human plasma may be measured as follows:
# Stability in Human Plasma
# Blood was taken from healthy volunteers in lithium heparin tubes and plasma was prepared by centrifugal separation of blood cells at 1500 g. Plasma from at least 3 individuals was pooled and used for compound stability determination.
# Compounds were prepared in 100% DMSO at a concentration of 10 mM and serially diluted to a concentration of 100 μM. Incubations were performed at a final concentration of 1 μM and were initiated by addition of 3 μl of 100 μM compound stock solution into 297 μl plasma, pre-warmed in a water bath to 37° C., followed by brief vortex mixing. 50 μl aliquots of plasma were removed at 4 timepoints over a 1 hour incubation period and quenched immediately by protein precipitation achieved by addition of the aliquot of plasma to a pre-prepared 96 well plate containing 150 μl of acetonitrile containing an appropriate internal standard. Acetonitrile quenched samples were vortex mixed followed by centrifugation for 20 minutes at 1500 g to remove the precipitated proteins. Initial compound levels (at time=0 minutes) was established by spiking compound into pre-quenched plasma at the same concentration as used in the incubation. The supernatant was then removed, diluted 1:1 with water and analysed for compound remaining by liquid chromatography-tandem mass spectrometry (Waters Acquity HPLC, Applied Biosystems API4000). The plasma elimination rate constant of the compound was calculated by fitting the peak area ratio of compound:internal standard to an exponential decay function and the half life calculated by division of the natural log of 2 by the elimination rate constant (Microsoft Excel).
compound,measurement,setting,value
"CCCN(CCC)C(=O)COC(=O)COc1ccc(CCC(=O)N2CCC3(CC2)CN/C(=N\C(=O)c2nc(Cl)c(N)nc2N)N3)cc1Cl [Example 3.0, [2-Chloro-4-(3-{2-[(E)-3,5-diamino-6-chloro-pyrazine-2-carbonylimino]-1,3,8-triaza-spiro[4.5]dec-8-yl}-3-oxo-propyl)-phenoxy]-acetic acid dipropylcarbamoylmethyl ester]",IC50,[1],0.011 µM
same,half-life at 1 μM,[2],2 min
"Nc1nc(N)c(C(=O)/N=C2\NCC3(CCN(C(=O)c4cccc(S(=O)(=O)NCCC(=O)OCC(=O)N5CCCC5C(F)(F)F)c4)CC3)N2)nc1Cl (centres unmarked) [Example 4.0, 3-(3-{2-[(E)-3,5-Diamino-6-chloro-pyrazine-2-carbonylimino]-1,3,8-triaza-spiro[4.5]decane-8-carbonyl}-benzenesulfonylamino)-propionic acid 2-oxo-2-(2-trifluoromethyl-pyrrolidin-1-yl)-ethyl ester]",IC50,[1],0.101 µM
same,half-life at 1 μM,[2],28 min
"Nc1nc(N)c(C(=O)/N=C2\NCC3(CCN(C(=O)CCc4ccc(OCC(=O)OCCN5CCCCC5=O)c(Cl)c4)CC3)N2)nc1Cl [Example 4.1, [2-Chloro-4-(3-{2-[(E)-3,5-diamino-6-chloro-pyrazine-2-carbonylimino]-1,3,8-triaza-spiro[4.5]dec-8-yl}-3-oxo-propyl)-phenoxy]-acetic acid 2-(2-oxo-piperidin-1-yl)ethyl ester]",IC50,[1],0.132 µM
same,half-life at 1 μM,[2],3 min
"Nc1nc(N)c(C(=O)/N=C2\NCC3(CCN(C(=O)CCc4ccc(OCC(=O)OCC(=O)N5CCOCC5)cc4)CC3)N2)nc1Cl [Example 4.2, [4-(3-{2-[(E)-3,5-Diamino-6-chloro-pyrazine-2-carbonylimino]-1,3,8-triaza-spiro[4.5]dec-8-yl}-3-oxo-propyl)-phenoxy]-acetic acid 2-morpholin-4-yl-2-oxo-ethyl ester]",IC50,[1],0.45 µM
same,half-life at 1 μM,[2],4 min
"CCCN(CCC)C(=O)COC(=O)C1(CNS(=O)(=O)c2cccc(C(=O)N3CCC4(CC3)CN/C(=N\C(=O)c3nc(Cl)c(N)nc3N)N4)c2)CCC1 [Example 5.0, 1-[(3-{2-[(E)-3,5-Diamino-6-chloro-pyrazine-2-carbonylimino]-1,3,8-triaza-spiro[4.5]decane-8-carbonyl}-benzenesulfonylamino)-methyl]-cyclobutanecarboxylic acid dipropylcarbamoylmethyl ester]",IC50,[1],0.012 µM
same,half-life at 1 μM,[2],5 min
"CCCN(CCC)C(=O)COC(=O)CCNC(=O)Nc1cccc(C(=O)N2CCC3(CC2)CN/C(=N\C(=O)c2nc(Cl)c(N)nc2N)N3)c1 [Example 5.1, 3-[3-(3-{2-[(E)-3,5-Diamino-6-chloro-pyrazine-2-carbonylimino]-1,3,8-triaza-spiro[4.5]decane-8-carbonyl}-phenyl)-ureido]-propionic acid dipropylcarbamoylmethyl ester]",IC50,[1],0.031 µM
same,half-life at 1 μM,[2],2 min
"Nc1nc(N)c(C(=O)/N=C2\NCC3(CCN(C(=O)c4cccc(S(=O)(=O)NCC5(C(=O)OCC(=O)N6CCCC6C(F)(F)F)CCC5)c4)CC3)N2)nc1Cl (centres unmarked) [Example 5.2, 1-[(3-{2-[(E)-3,5-Diamino-6-chloro-pyrazine-2-carbonylimino]-1,3,8-triaza-spiro[4.5]decane-8-carbonyl}-benzenesulfonylamino)-methyl]-cyclobutanecarboxylic acid 2-oxo-2-(2-trifluoromethyl-pyrrolidin-1-yl)-ethyl ester]",IC50,[1],0.019 µM
same,half-life at 1 μM,[2],39 min
